From patent publication US6337325B1, “Combined preparation for the therapy of immune diseases” (Hoechst Aktiengesellschaft, priority 1994, dated 2002)
Read-outs that look alike come from different tables or passages of the source.

How the values were obtained:
[1] = test system: PHA-induced release of IFNγ from peripheral blood mononuclear cells; test: Inhibition of PHA-induced release of IFNγ from PBMC (sandwich ELISA); type: cell-based; details: Homo sapiens, PHA 5 μg/ml, 120 h
Description: (§1) For all the in vitro tests, peripheral blood mononuclear cells (PBMC) were obtained from the blood of healthy donors by density gradient centrifugation in Ficoll-Hypaque (Pharmacia, Uppsala). This isolation step separated monocytes and lymphocytes from the other blood constituents. Further working-up of this PBMC fraction was carried out in accordance Ad with the requirements of the test preparations described below.
(§2) The resulting PBMC were incubated on microtiter plates together with phythemagglutinin (PHA, 5 μg/ml). […] Incubation was carried out at 37° C. in 5% CO2 with protection from the light. After 20 hours (h) (TNFα determination), 24 h (IL-2 determination) or 120 h (IFNγ determination), the cell supernatants were tested for cytokine release. TNFα was determined via its cytotoxicity to L929 cells, IL-2 was quantified via the proliferation of CTL-L6 cells and IFNγ was determined using a sandwich ELISA.

[2] = test system: T lymphocytes stimulated via CD3/PMA; test: T lymphocyte proliferation (3H-thymidine), stimulation via CD3/PMA; type: cell-based; details: Homo sapiens, 72 h
Description: as §1
(§3) The PBMC fraction was further fractionated to give pure T lymphocytes. This was done using Lympho-KWIK-T, a mixture of monoclonal antibodies from anti-monocytes and anti-B cells and complement, together with a mixture of monoclonal anti-NK and anti-monocyte antibodies with Leu 11 b (anti-CD16, IgM) and Leu 7 (anti-CD57, IgM) (One Lambda Inc., Los Angeles, Calif., USA). The isolation and purification of the T lymphocytes from the PBMC fraction was effected by means of the following process steps:
(§4) Monocytes are removed by cold agglutination.
30×10^6 of the cells obtained are incubated with 0.8 ml of Lympho-KWIK-T for 1 hour at 37° C. […]
After 64 h of incubation the cells were treated in each case with 1 μCi of ^3H-thymidine; 8 h later they were collected on glass fiber filters and the incorporated radioactivity was measured in a β counter. […]

[3] = test system: PHA-induced release of TNFα from peripheral blood mononuclear cells; test: Inhibition of PHA-induced release of TNFα from PBMC (L929 cytotoxicity read-out); type: cell-based; details: Homo sapiens
Description: as §1, §2
The following test examined the dependence of the inhibition of PHA-induced cytokine formation on the type of so-called “calcium antagonist” added.

[4] = test system: T lymphocytes stimulated via CD28/PMA; test: T lymphocyte proliferation (3H-thymidine), stimulation via CD28/PMA; type: cell-based, human
Description: as §1, §3, §4
30×10^6 of the cells obtained are incubated with 0.8 ml of Lympho-KWIK-T for 1 hour at 37° C.
The cells are washed three times and then incubated for 30 minutes at 4° C. with the mixture of monoclonal anti-NK and anti-monocyte antibodies.
The cells are washed once and re-incubated with 0.8 ml of Lympho-KWIK-T for 1 hour at 37° C.
After 64 h of incubation the cells were treated in each case with 1 μCi of ^3H-thymidine; 8 h later they were collected on glass fiber filters and the incorporated radioactivity was measured in a β counter.
The percentage inhibition of the T lymphocyte proliferation by the test substances was compared with a control not containing test substance, subtracting a basal value without monoclonal antibodies. The mean value from 4 parallel preparations was used for the evaluation.

[5] = test system: PHA-induced release of IL-2 from peripheral blood mononuclear cells; test: Inhibition of PHA-induced release of IL-2 from PBMC (CTL-L6 proliferation read-out); type: cell-based; details: Homo sapiens
Description: as §1, §2

[6] = test system: patient with pronounced psoriasis; test: Topical application to a single patient with pronounced psoriasis, subjective symptom scores; type: in vivo, human; details: after a 6-week application
Description: The effect of the topical application of a combination according to the invention to a single patient with pronounced psoriasis was studied in a parallel comparison. For this purpose the test substances pentoxifylline and diltiazem, dissolved in 30 ml of polypropylene glycol/ethanol/water (1:1:1. v/v), were incorporated, individually or together, in a final concentration of 2% (pentoxifylline) or 1% (diltiazem), into a commercially available creamy skin care product (Nivea lotion), ultimately giving the following 4 different formulations:
A) lotion without test substance (=vehicle control)
B) lotion with 2% of pentoxifylline
C) lotion with 1% of diltiazem
D) lotion with 2% of pentoxifylline+1% of diltiazem
Twice a day for 6 weeks, these 4 formulations were applied locally, with rubbing, to areas of skin on the patient's trunk which were affected by pronounced symptoms of psoriasis and had previously been precisely defined, particular care being taken to ensure that the same formulation was always applied to the same area of skin. The therapeutic result was monitored visually and evaluated by means of the following subjective scores: […]

Structure (SMILES)	inhibition at 0.1 µM ([1]; 0.1 μmol/l final concentration) [%]	inhibition at 0.1 µM ([2]; 0.1 μmol/l) [%]	inhibition at 0.1 µM ([3]; 0.1 μmol/l final concentration, PHA 5 μg/ml, 20 h) [%]	inhibition at 0.1 µM ([4]; Homo sapiens, T-lymphocyte, 0.1 μmol/l, T lymphocytes, 72 h) [%]	activity on T lymphocyte activation via the CD28-dependent mechanism, in words ([4]; single substance, stimulation via CD28)	inhibition at 0.1 µM ([5]; read-out: IL-2 % inhibition, 0.1 μmol/l final concentration, PHA 5 μg/ml, 24 h) [%]	inhibition at 50 µM ([1]; 50 μmol/l final concentration) [%]	inhibition at 40 µM ([2]; 40 μmol/l) [%]	inhibition at 50 µM ([3]; 50 μmol/l final concentration, PHA 5 μg/ml, 20 h, read-out: TNFα % inhibition) [%]	inhibition at 50 µM ([3]; Table 2, pentoxifylline alone, 50 μmol/l, read-out: percentage inhibition of the PHA-induced release of TNFα, pentoxifylline) [%]	inhibition at 40 µM ([4]; Homo sapiens, T-lymphocyte, 40 μmol/l, T lymphocytes, 72 h) [%]	psoriasis symptoms relative to the initial situation, in words [6]	inhibition at 50 µM ([5]; read-out: IL-2 % inhibition, 50 μmol/l final concentration, PHA 5 μg/ml, 24 h) [%]	inhibition at 10 µM ([3]; Table 2, test substance alone, 10 μmol/l, read-out: percentage inhibition of the PHA-induced release of TNFα, test substance alone) [%]
CCCC(=O)Nc1ncnc2c1ncn2[C@@H]1O[C@@H]2COP(=O)(O)O[C@H]2[C@H]1OC(=O)CCC [db-cAMP, dibutyryl-cAMP]	15 ± 8	16 ± 6	31 ± 13	11 ± 6	practically inactive	12 ± 4								
CC(=O)CCCCn1c(=O)c2c(ncn2C)n(C)c1=O [pentoxifylline]							20 ± 9	21 ± 7	28 ± 10	28 ± 10	28 ± 8	improved only moderately	14 ± 9	
COc1ccc([C@@H]2Sc3ccccc3N(CCN(C)C)C(=O)[C@@H]2OC(C)=O)cc1 [Diltiazem, diltiazem]												practically no visible difference		39 ± 13
